“And” between values parts separate entries of the source, which are not always exact repeats. Identical values can stand only once.
What was measured:
Format in all cases: cell-based
[1] = system: cells expressing pluripotency markers derived from human embryonic stem cells; assay: MTS viability (toxicity) assay of cells expressing pluripotency markers; design: Raw data (duplicate), first replicate / Average: unit not given here; conditions: for Raw data (duplicate), first replicate / Raw data (duplicate), second replicate: MTS viability assay raw reading; for Raw data (duplicate), first replicate: replicate 1; for Raw data (duplicate), second replicate: replicate 2; for Average: average of duplicate MTS raw readings
Summary of the method: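 A GSK-3B inhibitor library was screened for toxicity to pluripotency-marker-expressing cells. Compound was given in DMEM:F12 with 0.5% FCS and 100 ng/ml Activin A for two days, then replaced by medium with 2% FCS and Activin A. On day 4, MTS absorbance at 490 nm gave viability as percent of Activin A plus Wnt3a control wells.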

[2] = system: Sox17 expression in human embryonic stem cells (H9 line); assay: High content screening assay: Sox17 protein expression (differentiation); conditions: for SOX-17 Expression Fold over Wnt 3a/AA control: total intensity normalised to Wnt 3a/AA control; for SOX17 Expression, Fold over Wnt 3a/AA control: 10 μM test compound with 100 ng/ml activin A on days 1-2, H9, total intensity by IN Cell Analyzer, strong and moderate hits
Experimental: (§1) Maintenance of human embryonic stem cells (H9 line) was conducted as described in Example 1. Colonies of cells were maintained in an undifferentiated, pluripotent state with passage on average every four days. Passage was performed by exposing cell cultures to a solution of collagenase (1 mg/ml; Sigma-Aldrich) for 10 to 30 minutes at 37° C. followed by gentle scraping with a pipette tip to recover cell clusters. Clusters were allowed to sediment by gravity, followed by washing to remove residual collagenase. Cell clusters were split at a 1:3 ratio for routine maintenance culture or a 1:1 ratio for immediate assay. The human embryonic stem cell lines used were maintained at passage numbers less than passage 50 and routinely evaluated for normal karyotypic phenotype and absence of mycoplasma contamination.
(§2) Cell clusters used in the assay were evenly resuspended in normal culture medium and plated onto MATRIGEL-coated 96-well Packard VIEWPLATES (PerkinElmer) in volumes of […]. MEF conditioned medium supplemented with 8 ng/ml bFGF was used for initial plating and recovery. Daily feeding was conducted by aspirating spent culture medium from each well and replacing with an equal volume of fresh medium. Plates were maintained at 37° C., 5% CO2 in a humidified box throughout the duration of assay.
(§3) Screening was conducted using test compounds from a proprietary library of small molecules selected for their ability to inhibit GSK-3B enzyme activity. Compounds from this library were made available as 1 mM stocks, in a 96-well plate format in 50 mM HEPES, 30% DMSO. Screening compounds were tested in triplicate or duplicate sets. Primary screening assays were initiated by aspirating culture medium from each well followed by three washes in PBS to remove residual growth factors and serum. Test volumes of 80 to 100 μl per well were added back containing DMEM:F12 base medium (Invitrogen) supplemented with 0.5% FCS (HyClone) and 100 ng/ml activin A (R&D Biosystems) plus 10 μM test compound. Positive control wells contained the same base medium, substituting 10-20 ng/ml Wnt3a (R&D Biosystems) for the test compound. Negative control wells contained base medium with 0.5% FCS and activin A alone (AA only) or alternatively, 0.5% FCS without activin A or Wnt3a (no treatment). Wells were aspirated and fed again with identical solutions on day 2 of assay. On days 3 and 4, all assay wells were aspirated and converted to DMEM:F12 supplemented with 2% FCS and 100 ng/ml activin A (without test compound or Wnt3a); parallel negative control wells were maintained in DMEM:F12 base medium with 2% FCS and activin A (AA only) or alternatively, 2% FCS without activin A (no treatment).
(§4) At the end of culture, cells in 96-well plates were fixed with 4% paraformaldehyde at room temperature for 20 minutes, washed three times with PBS, and then permeabilized with 0.5% Triton X-100 for 20 minutes at room temperature. Alternatively, cells were fixed with ice cold 70% ethanol overnight at −20° C., washed three times with PBS, and then permeabilized with Triton X-100 for 5 minutes at 4° C. After fixing and permeabilizing, cells were washed again three times with PBS and then blocked with 4% chicken serum (Invitrogen) in PBS for 30 minutes at room temperature. Primary antibodies (goat anti-human Sox17 and goat anti-human HNF-3beta; R&D Systems) were diluted 1:100 in 4% chicken serum and added to cells for one hour at room temperature. Alexa Fluor 488 conjugated secondary antibody (chicken anti-goat IgG; Molecular Probes) was diluted 1:200 in PBS and added after washing the cells three times with PBS. To counterstain nuclei, 5 mM Draq5 (Alexis Biochemicals) was added for five minutes at room temperature. Cells were washed once with PBS and left in […] PBS for imaging.
(§5) Cells were imaged using an IN Cell Analyzer 1000 (GE Healthcare) utilizing the 51008bs dichroic for cells stained with Draq5 and Alexa Fluor 488. […]

[3] = system: human embryonic stem cells (H9 line); assay: High content screening assay: cell number (proliferative response)
Experimental: as §1, §2, §3, §4, §5

[4] = system: HNF-3beta expression in human embryonic stem cells (H9 line); assay: High content screening assay: HNF-3beta protein expression (differentiation); conditions: for HNF-3b Expression Fold over Wnt 3a/AA control: total intensity normalised to Wnt 3a/AA control; for HNF3β Expression, Fold over Wnt 3a/AA control: 10 μM test compound with 100 ng/ml activin A on days 1-2, H9, total intensity by IN Cell Analyzer, strong and moderate hits
Experimental: as §1, §2, §3, §4, §5

[5] = viability of cells expressing pluripotency markers, relative to control
[6] = cell number in the wells analysed for HNF-3b expression
[7] = cell number in the wells analysed for HNF-3b expression, normalised to Wnt 3a/AA control
[8] = cell number in the wells analysed for SOX-17 expression
[9] = cell number in the wells analysed for SOX-17 expression, normalised to Wnt 3a/AA control
[10] = 10 μM test compound with 100 ng/ml activin A on days 1-2, H9, total cell number by IN Cell Analyzer, strong and moderate hits

SMILES	Raw data (duplicate), first replicate [1]	Raw data (duplicate), second replicate [1]	Average [1]	% Control [1, 5]	SOX-17 Expression Total Intensity [2]	SOX-17 Expression Fold over Wnt 3a/AA control [2]	Proliferative Response Total cells [3, 6]	Proliferative Response Fold over Wnt 3a/AA control [3, 7]	Proliferative Response Total cells [3, 8]	Proliferative Response Fold over Wnt 3a/AA control [3, 9]	HNF-3b Expression Total Intensity [4]	HNF-3b Expression Fold over Wnt 3a/AA control [4]	viability at 10 µM ([1]; Homo sapiens, Embryonic stem cell, viability of cells expressing pluripotency markers, relative to control)	SOX17 Expression, Fold over Wnt 3a/AA control [2]	Proliferative Response Fold over Wnt 3a/AA control [3, 10]	HNF3β Expression, Fold over Wnt 3a/AA control [4]
CN1CCCn2cc(c3ccccc32)C2=C(C(=O)NC2=O)c2cn(c3ccccc23)CCOCCOCC1 [Compound 3, 14-Methyl-6,7,9,10,12,13,14,15,16,17-decahydro-24H-5,27:18,23-di(metheno)dibenzo[l,r]pyrrolo[3,4-o][1,4,7,11,20]dioxatriazacyclodocosine-24,26(25H)-dione]	0.161	0.169	0.165	6.9%	162790000	0.4343 fold	2184	0.4324 fold	1766	0.2216 fold	189875000	0.4132 fold				
CN(C)CCCn1cc(C2=C(c3ccccc3Cl)C(=O)NC2=O)c2cccnc21 [Compound 12, 3-(2-Chlorophenyl)-4-{1-[3-(dimethylamino)propyl]-1H-pyrrolo[2,3-b]pyridin-3-yl}-1H-pyrrole-2,5-dione]	0.148	0.152	0.150		203350000		2410		2460.5		209795000		4.8%			
O=C1NC(=O)C2=C1c1cn(c3ncccc13)CCOCCOCCOCCn1cc2c2cccnc21 [Compound 2, 6,7,9,10,12,13,15,16-Octahydro-23H-5,26:17,22-di(metheno)dipyrido[2,3-k:3′,2′-q]pyrrolo[3,4-n][1,4,7,10,19]trioxadiazacyclohenicosine-23,25(24H)-dione]	0.785	0.790	0.788	94.0%	296920000	0.7921 fold	5679	1.125 fold	10963	1.376 fold	463525000	1.0087 fold		0.7921 Fold over Wnt 3a/AA control	1.3757 Fold over Wnt 3a/AA control and 1.1246 Fold over Wnt 3a/AA control	1.0087 Fold over Wnt 3a/AA control
COCCN1CCOCCn2cc(c3ccccc32)C2=C(C(=O)NC2=O)c2nn(c3ccccc23)CCOCC1 [Compound 10, 11-(2-Methoxyethyl)-6,7,10,11,12,13,15,16-octahydro-9H,23H-5,26-(azeno)-17,22-(metheno)dibenzo[k,q]pyrrolo[3,4-n][1,7,4,10,19]dioxatriazacyclohenicosine-23,25(24H)-dione]	0.601	0.620	0.611	72.2%	257295000	0.6864 fold	4507	0.8926 fold	4645.5	0.5829 fold	312605000	0.6803 fold		0.6864 Fold over Wnt 3a/AA control	0.8926 Fold over Wnt 3a/AA control	0.6803 Fold over Wnt 3a/AA control
O=C1NC(=O)C2=C1c1cn(c3ncccc13)CCOCCOCCOCCn1cc2c2cccnc21 [Compound 167]	0.804	0.903	0.853	109.0%	337920000	0.9014 fold	5013	0.9928 fold	6217	0.7801 fold	437235000	0.9515 fold		0.9014 Fold over Wnt 3a/AA control	0.9928 Fold over Wnt 3a/AA control	0.9515 Fold over Wnt 3a/AA control
O=C1CCCCn2cc(c3cccnc32)C2=C(C(=O)NC2=O)c2cn(c3ncccc23)CCCC1 [Compound 11, 8,9,11,12,13,14-Hexahydro-6H,21H-5,24:15,20-di(metheno)dipyrido[2,3-b:3′,2′-h]pyrrolo[3,4-e][1,10]diazacyclononadecine-10,21,23(7H,22H)-trione]	0.743	0.638	0.691	84.1%	213165000	0.5686 fold	3043	0.6025 fold	2892.5	0.363 fold	269570000	0.5866 fold		0.5686 Fold over Wnt 3a/AA control	0.6025 Fold over Wnt 3a/AA control	0.5866 Fold over Wnt 3a/AA control
